Measured values reported in patent US10947242B2, “[1,2,4]triazolo[1,5and#8208;A]pyrimidine compounds as PDE2 inhibitors” (Janssen Pharmaceutica NV, priority 2016, dated 2021).
Like-named read-outs stand apart in the source and are kept apart here.

Columns and labels:
Assay type in all cases: biochemical
[1] = biological target: T1, Human recombinant PDE3A (hPDE3A) (Homo sapiens, UniProt Q14432); test: In vitro assay PDE3A (SPA, 3H-cAMP hydrolysis); details: for IC50: hPDE3B pIC50; for Emax: read-out: hPDE3B Emax, read-out: Emax;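 on Emax: the method names PDE3A and the table heading PDE3B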
T1 construct: purchased Scottish Biomedical; host or cells: Sf9 insect cells
T1 sequence (Q14432 whole entry): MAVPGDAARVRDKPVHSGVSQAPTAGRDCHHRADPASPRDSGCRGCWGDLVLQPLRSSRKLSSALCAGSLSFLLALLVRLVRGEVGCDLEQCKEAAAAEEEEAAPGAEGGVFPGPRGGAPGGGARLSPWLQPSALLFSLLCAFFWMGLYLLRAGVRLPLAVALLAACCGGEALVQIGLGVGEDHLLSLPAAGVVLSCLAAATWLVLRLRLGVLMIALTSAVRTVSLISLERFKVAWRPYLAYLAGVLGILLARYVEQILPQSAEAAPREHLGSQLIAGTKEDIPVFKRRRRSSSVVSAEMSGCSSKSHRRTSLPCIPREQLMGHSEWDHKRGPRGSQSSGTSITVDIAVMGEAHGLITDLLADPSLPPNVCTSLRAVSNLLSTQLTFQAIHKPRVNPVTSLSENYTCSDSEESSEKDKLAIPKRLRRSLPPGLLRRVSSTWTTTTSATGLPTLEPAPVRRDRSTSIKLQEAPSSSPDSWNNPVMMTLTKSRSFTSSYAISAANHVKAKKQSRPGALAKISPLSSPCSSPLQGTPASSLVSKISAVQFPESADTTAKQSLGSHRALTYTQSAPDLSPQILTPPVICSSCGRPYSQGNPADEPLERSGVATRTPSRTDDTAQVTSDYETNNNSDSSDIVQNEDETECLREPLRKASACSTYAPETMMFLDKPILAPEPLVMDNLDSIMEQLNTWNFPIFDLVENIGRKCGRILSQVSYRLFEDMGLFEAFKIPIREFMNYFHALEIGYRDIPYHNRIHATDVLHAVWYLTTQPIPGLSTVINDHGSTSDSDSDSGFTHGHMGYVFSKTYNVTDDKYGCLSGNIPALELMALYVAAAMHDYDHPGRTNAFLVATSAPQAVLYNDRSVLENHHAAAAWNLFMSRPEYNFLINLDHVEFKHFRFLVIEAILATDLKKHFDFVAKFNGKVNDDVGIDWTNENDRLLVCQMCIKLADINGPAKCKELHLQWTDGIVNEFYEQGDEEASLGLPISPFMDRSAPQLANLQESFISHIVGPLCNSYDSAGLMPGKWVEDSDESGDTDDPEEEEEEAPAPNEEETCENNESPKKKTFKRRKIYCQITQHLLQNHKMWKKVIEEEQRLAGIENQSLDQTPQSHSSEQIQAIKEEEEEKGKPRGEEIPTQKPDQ
In short: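 Human PDE3A, cloned from brain, as partially purified Sf9 lysate. Substrate 0.4 μM cAMP plus [3H]-cAMP (2.4 μCi/ml final) in 50 mM Tris pH 7.8, 8.3 mM MgCl2, 1.7 mM EGTA, 60 min at room temperature, 1% DMSO final. Hydrolysis read by SPA scintillation counting against no-enzyme blanks and DMSO controls.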

[2] = biological target: T2, Human recombinant PDE2A (hPDE2A) (Homo sapiens, UniProt O00408); test: In vitro assay PDE2A (SPA, 3H-cGMP hydrolysis); details: for Emax: read-out: hPDE2A Emax
T2 construct: His tag (inferred from metal chelate purification); made in house; host or cells: Sf9 insect cells (baculovirus)
T2 sequence (O00408 whole entry): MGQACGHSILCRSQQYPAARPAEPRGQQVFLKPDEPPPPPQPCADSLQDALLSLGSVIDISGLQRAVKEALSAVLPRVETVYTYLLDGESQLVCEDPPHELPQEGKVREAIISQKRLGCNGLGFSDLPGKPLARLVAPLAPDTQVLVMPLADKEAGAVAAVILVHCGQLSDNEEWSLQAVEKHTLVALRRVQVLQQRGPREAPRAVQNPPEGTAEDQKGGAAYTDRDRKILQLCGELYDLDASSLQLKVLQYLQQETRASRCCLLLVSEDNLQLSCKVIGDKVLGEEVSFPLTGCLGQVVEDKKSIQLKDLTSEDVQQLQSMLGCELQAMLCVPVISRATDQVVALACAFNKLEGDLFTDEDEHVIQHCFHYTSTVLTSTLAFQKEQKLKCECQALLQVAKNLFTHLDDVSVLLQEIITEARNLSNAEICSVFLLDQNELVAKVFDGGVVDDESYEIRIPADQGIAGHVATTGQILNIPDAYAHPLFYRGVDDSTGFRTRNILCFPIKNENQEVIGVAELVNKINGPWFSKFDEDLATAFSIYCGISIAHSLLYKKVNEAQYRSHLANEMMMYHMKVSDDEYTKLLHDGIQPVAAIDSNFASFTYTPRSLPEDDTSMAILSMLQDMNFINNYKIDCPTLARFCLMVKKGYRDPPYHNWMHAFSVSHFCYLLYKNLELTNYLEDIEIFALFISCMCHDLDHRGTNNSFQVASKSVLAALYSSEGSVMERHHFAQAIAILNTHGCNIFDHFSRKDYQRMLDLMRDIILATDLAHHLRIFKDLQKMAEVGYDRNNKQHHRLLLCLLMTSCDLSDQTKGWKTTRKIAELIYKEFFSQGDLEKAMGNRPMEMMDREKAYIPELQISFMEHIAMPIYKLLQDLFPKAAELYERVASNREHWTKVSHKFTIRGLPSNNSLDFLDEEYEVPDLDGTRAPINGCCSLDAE

[3] = biological target: T3, Human recombinant PDE10A (hPDE10A) (Homo sapiens, UniProt Q9Y233); test: In vitro assay PDE10A, human clone (SPA, 3H-cAMP hydrolysis); details: for Emax: read-out: hPDE10A2 or rPDE10A2 Emax
T3 construct: His tag (inferred from metal chelate purification); made in house; host or cells: Sf9 insect cells (baculovirus)
T3 sequence (Q9Y233 267-1055): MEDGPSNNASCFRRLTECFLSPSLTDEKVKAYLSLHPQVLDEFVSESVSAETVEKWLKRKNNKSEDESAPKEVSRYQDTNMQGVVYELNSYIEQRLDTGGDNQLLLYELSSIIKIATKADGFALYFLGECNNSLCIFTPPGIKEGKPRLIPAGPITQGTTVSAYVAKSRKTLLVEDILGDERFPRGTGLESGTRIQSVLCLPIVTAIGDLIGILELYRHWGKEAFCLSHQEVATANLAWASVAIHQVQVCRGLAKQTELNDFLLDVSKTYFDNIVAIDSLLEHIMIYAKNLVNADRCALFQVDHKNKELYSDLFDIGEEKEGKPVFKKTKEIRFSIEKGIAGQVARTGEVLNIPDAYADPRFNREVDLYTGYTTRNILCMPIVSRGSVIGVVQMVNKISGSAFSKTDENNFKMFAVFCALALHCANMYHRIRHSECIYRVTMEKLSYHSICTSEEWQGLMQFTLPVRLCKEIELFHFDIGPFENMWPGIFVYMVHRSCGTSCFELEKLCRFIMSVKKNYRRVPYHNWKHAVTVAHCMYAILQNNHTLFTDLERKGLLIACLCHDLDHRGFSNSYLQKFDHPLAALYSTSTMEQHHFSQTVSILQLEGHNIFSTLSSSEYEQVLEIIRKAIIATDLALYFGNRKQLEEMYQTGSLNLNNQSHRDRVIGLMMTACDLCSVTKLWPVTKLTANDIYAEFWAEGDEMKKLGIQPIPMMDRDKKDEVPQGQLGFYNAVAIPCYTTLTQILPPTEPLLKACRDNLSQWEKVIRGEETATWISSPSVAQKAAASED
In short: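 Human recombinant PDE10A was expressed in Sf9 cells via baculovirus and incubated with compound in 50 mM Tris pH 7.8, 8.3 mM MgCl2, 1.7 mM EGTA. Substrate was 60 nM cAMP plus 0.008 μCi 3H-cAMP for 60 min at room temperature, read by SPA scintillation counting. Controls used 1% DMSO, and blanks omitted enzyme.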

[4] = read-out: hPDE2A pIC50 (converted)
[5] = human clone by default (no (r) mark)
[6] = human clone by default (no (r) mark), read-out: hPDE10A2 or rPDE10A2 pIC50 (converted)

Row | Compound | IC50 ([1]; read-out: pIC50 (converted)) | Emax [1] | Emax [2] | IC50 [2, 4] | Emax [3, 5] | IC50 [3, 6] | IC50 [1] | IC50 ([2]; hPDE2A pIC50) | IC50 ([3]; hPDE10A2 or rPDE10A2 pIC50, human clone by default (no (r) mark))
1 | O=C(c1ccc(OC(F)(F)F)c(F)c1)N1[C@H]2CC[C@H](c3cc(C(F)F)nc4ncnn34)[C@@H]1CC2 [Compound 342] | 4470 nM | 69% | 100% | 32.4 nM | 77% | 2690 nM |  |  | 
2 | COc1cc(C(=O)N2[C@H]3CC[C@H](c4cc(C(F)F)nc5ncnn45)[C@@H]2CC3)ccc1F [Compound 343] | > 10000 nM | 44% | 102% | 67.6 nM | 68% | 4570 nM |  |  | 
3 | Cc1cc(C(=O)N2[C@H]3CC[C@H](c4cc(C(F)F)nc5ncnn45)[C@@H]2CC3)cc(F)c1F [Compound 344] | 7240 nM | 61% | 99% | 29.5 nM | 80% | 2570 nM |  |  | 
4 | O=C(c1ccc(F)c(OC(F)F)c1)N1[C@H]2CC[C@H](c3cc(C(F)F)nc4ncnn34)[C@@H]1CC2 [Compound 345] | 8320 nM | 48% | 99% | 75.9 nM | 72% | 3720 nM |  |  | 
5 | CC(C)(C)c1ccc(C(=O)N2[C@H]3CC[C@H](c4cc(C(F)F)nc5ncnn45)[C@@H]2CC3)o1 [Compound 348] | 4470 nM | 70% | 99% | 33.9 nM | 92% | 1290 nM |  |  | 
6 | Cc1ccc(C(=O)N2[C@H]3CC[C@H](c4cc(C(F)F)nc5ncnn45)[C@@H]2CC3)s1 [Compound 349] | 4790 nM | 64% | 102% | 22.4 nM | 86% | 1780 nM |  |  | 
7 | O=C(c1ccc2c(c1)OC(F)(F)O2)N1[C@H]2CC[C@H](c3cc(C(F)F)nc4ncnn34)[C@@H]1CC2 [Compound 350] | 4900 nM | 74% | 100% | 25.1 nM | 85% | 2090 nM |  |  | 
8 | O=C(c1ccc(Cl)s1)N1[C@H]2CC[C@H](c3cc(C(F)F)nc4ncnn34)[C@@H]1CC2 [Compound 351] | 6310 nM | 69% | 99% | 51.3 nM | 83% | 2140 nM |  |  | 
9 | Cc1ccc(C(=O)N2[C@H]3CC[C@H](c4cc(C(F)F)nc5ncnn45)[C@@H]2CC3)o1 [Compound 354] | 9770 nM | 45% | 100% | 89.1 nM | 70% | 4470 nM |  |  | 
10 | O=C(c1ccc(F)c(C(F)(F)F)c1)N1[C@H]2CC[C@H](c3cc(C(F)F)nc4ncnn34)[C@@H]1CC2 [Compound 357] | > 10000 nM | 34% | 98% | 77.6 nM | 73% | 3390 nM |  |  | 
11 | Cc1cc(C(=O)N2[C@H]3CC[C@H](c4cc(C(F)F)nc5ncnn45)[C@@H]2CC3)c(C)s1 [Compound 358] | > 10000 nM | 40% | 102% | 26.9 nM | 58% | 7940 nM |  |  | 
12 | COc1c(F)cc(C(=O)N2[C@H]3CC[C@H](c4cc(C(F)F)nc5ncnn45)[C@@H]2CC3)cc1F [Compound 359] | 3980 nM | 71% | 99% | 12 nM | 86% | 2140 nM |  |  | 
13 | Cc1cc(C(=O)N2CC[C@@H](C)[C@H](c3cc(C(F)F)nc4ncnn34)C2)cc(CO)n1 [Compound 361] | > 10000 nM | 37% | 100% | 2.75 nM | 92% | 355 nM |  |  | 
14 | Cc1cnc(C(=O)N2[C@H]3CC[C@H](c4cc(C(F)F)nc5ncnn45)[C@@H]2CC3)cc1C [Compound 365] | > 10000 nM | 24% | 99% | 63.1 nM | 33% | > 10000 nM |  |  | 
15 | O=C(c1cc2n(n1)CCO2)N1[C@H]2CC[C@H](c3cc(C(F)F)nc4ncnn34)[C@@H]1CC2 [Compound 367] | > 10000 nM | 21% | 97% | 437 nM | 44% | > 10000 nM |  |  | 
16 | C/C(=C\c1ccc(F)cc1)C(=O)N1[C@H]2CC[C@H](c3cc(C(F)F)nc4ncnn34)[C@@H]1CC2 [Compound 370] | 1450 nM | 87% | 100% | 33.9 nM | 94% | 661 nM |  |  | 
17 | C/C(=C\c1ccccc1)C(=O)N1[C@H]2CC[C@H](c3cc(C(F)F)nc4ncnn34)[C@@H]1CC2 [Compound 371] | 389 nM | 96% | 101% | 13.8 nM | 98% | 389 nM |  |  | 
18 | O=C(c1ccc2sccc2c1)N1[C@H]2CC[C@H](c3cc(C(F)F)nc4ncnn34)[C@@H]1CC2 [Compound 372] | 1350 nM | 90% | 100% | 1.02 nM | 96% | 251 nM |  |  | 
19 | Cc1cc2cc(C(=O)N3[C@H]4CC[C@H](c5cc(C(F)F)nc6ncnn56)[C@@H]3CC4)ccc2n1C [Compound 373] | 537 nM | 97% | 100% | 2.69 nM | 99% | 316 nM |  |  | 
20 | Cn1ccc2cc(C(=O)N3[C@H]4CC[C@H](c5cc(C(F)F)nc6ncnn56)[C@@H]3CC4)cc(F)c21 [Compound 374] | 741 nM | 97% | 100% | 0.741 nM | 98% | 182 nM |  |  | 
21 | CN1CCOc2cc(C(=O)N3[C@H]4CC[C@H](c5cc(C(F)F)nc6ncnn56)[C@@H]3CC4)ccc21 [Compound 378] | 759 nM | 96% | 99% | 1.7 nM | 97% | 407 nM |  |  | 
22 | Cn1cnc2cc(C(=O)N3[C@H]4CC[C@H](c5cc(C(F)F)nc6ncnn56)[C@@H]3CC4)ccc21 [Compound 379] | 5250 nM | 67% | 102% | 11.2 nM | 87% | 1620 nM |  |  | 
23 | Cn1ncc2cc(C(=O)N3[C@H]4CC[C@H](c5cc(C(F)F)nc6ncnn56)[C@@H]3CC4)ccc21 [Compound 380] | 3980 nM | 72% | 101% | 5.5 nM | 96% | 363 nM |  |  | 
24 | O=C(c1ccc2nccnc2c1)N1[C@H]2CC[C@H](c3cc(C(F)F)nc4ncnn34)[C@@H]1CC2 [Compound 381] |  | 48% | 99% | 7.59 nM | 88% | 1320 nM |  |  | 
25 | Cn1ccc2cc(C(=O)N3[C@H]4CC[C@H](c5cc(C(F)F)nc6ncnn56)[C@@H]3CC4)ncc21 [Compound 382] | > 10000 nM | 37% | 99% | 10.2 nM | 75% | 3980 nM |  |  | 
26 | Cc1cc([C@@H]2CN(C(=O)c3cc(C4CC4)ncc3C3CC3)CC[C@H]2C)n2ncnc2n1 [Compound 390] | 2570 nM | 84% | 98% | 2.09 nM | 99% | 61.7 nM |  |  | 
27 | Cc1nc(C(F)(F)F)cc(C(=O)N2CC[C@@H](C)[C@H](c3cc(C(F)F)nc4ncnn34)C2)c1F [Compound 394] | > 10000 nM | 27% | 99% | 9.33 nM | 76% | 2240 nM |  |  | 
28 | Cc1cc(C(=O)N2CC[C@@H](C)[C@H](c3cc(C(F)F)nc4ncnn34)C2)c(F)c(C(F)(F)F)n1 [Compound 396] | > 10000 nM | 56% | 98% | 15.1 nM | 84% | 1480 nM |  |  | 
29 | Cc1cc(C(=O)N2[C@H]3CC[C@H](c4cc(C(F)F)nc5ncnn45)[C@@H]2CC3)c(F)c(C)n1 [Compound 400] |  | 16% | 99% |  | 41% |  | > 10000 nM | 22.4 nM | > 10000 nM
30 | Cc1cc(C(=O)N2CC[C@@H](C)[C@H](c3cc(C(F)F)nc4ncnn34)C2)cc(C)[n+]1[O-] [Compound 402] | > 10000 nM | 28% | 100% |  | 87% | 1480 nM |  | 26.3 nM | 
